# Assay results: paper PMC6994103 (PLoS Neglected Tropical Diseases, 2020)
# Values joined by “and” are separate entries in the source; they are usually repeats but may differ in a detail not shown here. Equal values may be shown once.
# Tests used:
# [1] = test system: T. cruzi epimastigotes Y strain; assay: Synergism BZL with LTD-CPH-CFZ in epimastigotes, Y strain (CompuSyn); type: cell-based, Trypanosoma cruzi; details: alone
# Method: (§1) Parasites´ growth was evaluated at different concentrations of BZL, CV and CV structural analogues, and parasite proliferation was determined after 48 h. […] Growth was determined by counting in a Neubauer chamber and viability assays by using “Cell Titer 96 Aqueous One Solution Cell Proliferation Assay (MTS)” (Promega, Madison, WI, USA) according to the manufacturer’s instructions. Amastigotes were fixed with methanol, stained and mounted with Vectashield with DAPI (Vector Laboratories, Burlingame, CA, USA), and then the non-lysed cells were counted by using fluorescence microscopy. Calculations were performed using CompuSyn software (http://combosyn.com) which is based on the median-effect equation [48] and its extension, the combination index.
# [2] = test system: T. cruzi trypomastigotes Y strain; assay: Synergism BZL with LTD-CPH-CFZ in trypomastigotes, Y strain (CompuSyn); type: cell-based, Trypanosoma cruzi
# Method: as §1
smiles,measurement,setting,value
O=C(Cn1ccnc1[N+](=O)[O-])NCc1ccccc1 [Benznidazole],Dose BZL alone,[1]; same effect (Fa 0.835) as BZL 10.00 µM + LTD-CPH-CFZ 17.00 µM,101.97 ± 8.68 µM
same,Dose BZL alone,[1]; same effect (Fa 0.852) as BZL 20.00 µM + LTD-CPH-CFZ 3.40 µM,117.55 ± 11.14 µM
same,Dose BZL alone,[1]; same effect (Fa 0.877) as BZL 20.00 µM + LTD-CPH-CFZ 8.50 µM,148.83 ± 4.56 µM
same,Dose BZL alone,[1]; same effect (Fa 0.881) as BZL 1.00 µM + LTD-CPH-CFZ 42.50 µM,157.01 ± 24.63 µM
same,Dose BZL alone,[1]; same effect (Fa 0.909) as BZL 20.00 µM + LTD-CPH-CFZ 17.00 µM,218.81 ± 31.25 µM
same,Dose BZL alone,[1]; same effect (Fa 0.933) as BZL 5.00 µM + LTD-CPH-CFZ 42.50 µM,315.46 ± 41.27 µM
same,Dose BZL alone,[1]; same effect (Fa 0.951) as BZL 10.00 µM + LTD-CPH-CFZ 42.50 µM,457.73 ± 30.35 µM
same,Dose BZL alone,[1]; same effect (Fa 0.981) as BZL 20.00 µM + LTD-CPH-CFZ 42.50 µM,1370.11 ± 265.72 µM
same,DRI BZL,[2]; BZL 0.50 µM + LTD-CPH-CFZ 3.00 µM (1/10 IC50),3.60 ± 0.06
same,DRI BZL,[2]; BZL 0.50 µM + LTD-CPH-CFZ 6.00 µM (1/5 IC50),9.19 ± 1.16
same,DRI BZL,[2]; BZL 0.50 µM + LTD-CPH-CFZ 7.50 µM (1/4 IC50),22.88 ± 3.02
same,DRI BZL,[2]; BZL 0.50 µM + LTD-CPH-CFZ 10.00 µM (1/3 IC50),94.41 ± 15.96
same,DRI BZL,[2]; BZL 1.00 µM + LTD-CPH-CFZ 3.00 µM (1/10 IC50),5.34 ± 0.30
same,DRI BZL,[2]; BZL 1.00 µM + LTD-CPH-CFZ 6.00 µM (1/5 IC50),12.08 ± 1.16
same,DRI BZL,"[2]; BZL 1.00 µM + LTD-CPH-CFZ 7.50 µM (1/4 IC50), listed as BZL",27 and 27.38 ± 2.15
same,DRI BZL,[2]; BZL 1.00 µM + LTD-CPH-CFZ 10.00 µM (1/3 IC50),95.04 ± 0.83
same,DRI BZL,[2]; BZL 5.00 µM + LTD-CPH-CFZ 3.00 µM (1/10 IC50),2.88 ± 0.54
same,DRI BZL,[2]; BZL 5.00 µM + LTD-CPH-CFZ 6.00 µM (1/5 IC50),7.17 ± 1.62
same,DRI BZL,[2]; BZL 5.00 µM + LTD-CPH-CFZ 7.50 µM (1/4 IC50),14.85 ± 6.05
same,DRI BZL,[2]; BZL 5.00 µM + LTD-CPH-CFZ 10.00 µM (1/3 IC50),32.44 ± 3.71
same,DRI BZL,[2]; BZL 10.00 µM + LTD-CPH-CFZ 3.00 µM (1/10 IC50),1.46 ± 0.23
same,DRI BZL,[2]; BZL 10.00 µM + LTD-CPH-CFZ 6.00 µM (1/5 IC50),6.02 ± 1.15
same,DRI BZL,[2]; BZL 10.00 µM + LTD-CPH-CFZ 7.50 µM (1/4 IC50),33.28 ± 1.72
same,DRI BZL,[2]; BZL 10.00 µM + LTD-CPH-CFZ 10.00 µM (1/3 IC50),35.17 ± 4.38
same,Dose BZL alone,[2]; same effect (Fa 0.226) as BZL 0.50 µM + LTD-CPH-CFZ 3.00 µM,1.80 ± 0.03 µM
same,Dose BZL alone,[2]; same effect (Fa 0.417) as BZL 0.50 µM + LTD-CPH-CFZ 6.00 µM,4.60 ± 0.58 µM
same,Dose BZL alone,[2]; same effect (Fa 0.452) as BZL 1.00 µM + LTD-CPH-CFZ 3.00 µM,5.34 ± 0.30 µM
same,Dose BZL alone,[2]; same effect (Fa 0.631) as BZL 0.50 µM + LTD-CPH-CFZ 7.50 µM,11.44 ± 1.51 µM
same,Dose BZL alone,[2]; same effect (Fa 0.643) as BZL 1.00 µM + LTD-CPH-CFZ 6.00 µM,12.08 ± 1.16 µM
same,Dose BZL alone,[2]; same effect (Fa 0.679) as BZL 5.00 µM + LTD-CPH-CFZ 3.00 µM,14.42 ± 2.70 µM
same,Dose BZL alone,[2]; same effect (Fa 0.702) as BZL 10.00 µM + LTD-CPH-CFZ 3.00 µM,14.56 ± 2.33 µM
same,Dose BZL alone,[2]; same effect (Fa 0.798) as BZL 1.00 µM + LTD-CPH-CFZ 7.50 µM,27.38 ± 2.15 µM
same,Dose BZL alone,[2]; same effect (Fa 0.833) as BZL 5.00 µM + LTD-CPH-CFZ 6.00 µM,35.83 ± 8.10 µM
same,Dose BZL alone,[2]; same effect (Fa 0.869) as BZL 0.50 µM + LTD-CPH-CFZ 10.00 µM,47.21 ± 7.98 µM
same,Dose BZL alone,[2]; same effect (Fa 0.893) as BZL 10.00 µM + LTD-CPH-CFZ 6.00 µM,60.21 ± 11.50 µM
same,Dose BZL alone,[2]; same effect (Fa 0.905) as BZL 5.00 µM + LTD-CPH-CFZ 7.50 µM,74.24 ± 30.25 µM
same,Dose BZL alone,[2]; same effect (Fa 0.929) as BZL 1.00 µM + LTD-CPH-CFZ 10.00 µM,95.04 ± 0.83 µM
same,Dose BZL alone,[2]; same effect (Fa 0.976) as BZL 5.00 µM + LTD-CPH-CFZ 10.00 µM,162.18 ± 18.57 µM
same,Dose BZL alone,[2]; same effect (Fa 0.988) as BZL 10.00 µM + LTD-CPH-CFZ 7.50 µM,332.83 ± 17.17 µM
same,Dose BZL alone,[2]; same effect (Fa 0.988) as BZL 10.00 µM + LTD-CPH-CFZ 10.00 µM,351.76 ± 43.93 µM
